Measured values from US20080319031A1, “Novel Tyrosine Derivatives” (Orchid Chemicals & Pharmaceuticals Limited, priority 2005, published 2008).

How the values were obtained:
SJL/J mice = experiment: Experimental allergic encephalomyelitis (EAE) model of multiple sclerosis; type: in vivo; conditions: EAE induced by spinal chord homogenate in SJL/J mice
Procedure: Multiple Sclerosis (MS) is an autoimmune disease and is regulated by cytokine levels. In order to test the effect of compound 1 in example 1 in MS model, experimental allergic encepahalomyalitis (EAE) was induced in SJL/J mice. EAE is an autoimmune inflammatory disease of the central nervous system (CNS). […] EAE was induced by injecting spinal chord homogenate and the animals were treated with example compounds. The severity of EAE was established by clinical scores of paralysis.

[1] = system: human peripheral blood mononuclear cells; experiment: Cell viability of human PBMC incubated with compound; type: cell-based; conditions: hPBMC, highest concentration of the compound
IL-1β = IL-1β inhibition in LPS-challenged human PBMC (ELISA); type: cell-based; conditions: hPBMC 1×10^6/mL, LPS 100 ng/mL for 20 hours, different concentrations
Procedure: (§1) FIG. 1. TNF-α, IL-6 and IL-1β inhibition in human peripheral blood monocytic cells (hPBMC).
(§2) Human PBMC cells were cultured and incubated with compound 1 in example 1 at different concentrations. Cells (1×10^6/mL) were challenged with lipopolysaccharides (LPS) at a concentration of (100 ng/mL) for 20 hours. Cell supernatant was analyzed for the presence of TNF-α, IL-1β and IL-6 cytokines by antibody directed enzyme-linked immunoassay.

COX-1 = target: T1, COX-1 (Homo sapiens, UniProt P23219); experiment: COX-1 activity: arachidonic acid induced PGE-2 in U-937 cells; type: cell-based; conditions: 10 μM compound, 10 μM arachidonic acid 20 min
T1 construct: endogenous in cells; host or cells: U-937 human monocytic cells
Procedure: (§3) The inflammatory stimulus, LPS, also induces cycloxygenase-2 (COX-2) enzyme in this system and as a result prostaglandin E 2 (PGE-2) is produced. Human PBMC cells were cultured and incubated with compound in example 1 at different concentrations. Cells (1×10^6/mL) were challenged with lipopolysaccharides (LPS) at a concentration of (100 ng/mL) for 20 hours. Inhibition of COX-2 was determined by the measurement of PGE-2 levels in the supernatant by ELISA (Cayman Chemicals). For the determination of PGE-2 levels, supernatants were incubated in the ELISA plate and detected by calorimetric reaction. […] The endogenous form, COX-1 is only activated when there is a physiological stimulus and goes through the same pathway for the production of PGE-2 levels. Human monocytic U-937 (2.5×10^5/mL) cells were charged with arachidonic acid to activate the COX-1 pathway. It produced PGE-2 following these kind of physiological induction. To assay the COX-1 activity, cells were preincubated with the compound for 15 min (indomethacin was kept as positive control) and then they were challenged with 10 μM arachidonic acid for next 20 min. Supernatants were harvested and measured for PGE-2 as marker of COX-1 activity.

COX-2 = target: T2, COX-2 (Homo sapiens, UniProt P35354); experiment: COX-2 inhibition: LPS induced PGE-2 in human PBMC (ELISA); type: cell-based
T2 construct: LPS, also induces cycloxygenase-2 (COX-2) enzyme in this system; endogenous in cells; host or cells: human peripheral blood mononuclear cells from volunteers, LPS-stimulated
T2 sequence (P35354 18-604): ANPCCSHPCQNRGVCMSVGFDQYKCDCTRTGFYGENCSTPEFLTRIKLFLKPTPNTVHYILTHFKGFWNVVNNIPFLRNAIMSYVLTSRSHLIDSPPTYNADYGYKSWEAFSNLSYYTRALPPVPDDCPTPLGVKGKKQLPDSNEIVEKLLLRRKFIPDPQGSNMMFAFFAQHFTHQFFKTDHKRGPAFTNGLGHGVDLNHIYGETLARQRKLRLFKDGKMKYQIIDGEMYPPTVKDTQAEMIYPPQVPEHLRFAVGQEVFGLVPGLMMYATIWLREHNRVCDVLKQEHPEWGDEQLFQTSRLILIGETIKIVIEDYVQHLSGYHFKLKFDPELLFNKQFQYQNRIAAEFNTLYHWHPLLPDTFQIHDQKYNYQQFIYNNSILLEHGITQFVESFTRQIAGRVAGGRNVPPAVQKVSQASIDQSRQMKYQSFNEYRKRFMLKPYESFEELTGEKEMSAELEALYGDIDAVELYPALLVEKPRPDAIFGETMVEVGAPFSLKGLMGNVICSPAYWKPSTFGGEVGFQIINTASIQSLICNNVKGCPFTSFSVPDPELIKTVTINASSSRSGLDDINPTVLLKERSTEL
Procedure: as §3

TNF-α [2] = experiment: TNF-α inhibition in LPS-challenged human PBMC (ELISA); type: cell-based; conditions: hPBMC 1×10^6/mL, LPS 100 ng/mL for 20 hours, different concentrations
Procedure: as §1, §2

TNF-α [3] = experiment: LPS induced TNF-α production in vivo; design: species or system Swiss Webster (SW) mice; conditions: one hour before LPS 10 μg/mouse ip, blood after 90 min
Procedure: FIG. 3. Compound 1 Inhibits LPS Induced TNF-α Production In Vivo.
Swiss Webster (SW) mice were orally treated with vehicle, dexamethasone (5 mg/kg bw) and compound 1 in example 1 (50 mg/kg bw) one hour before LPS injection (10 μg/mouse, ip) and blood was collected after 90 min and measured TNF-α levels by ELISA as described in FIG. 1.

IL-6 = IL-6 inhibition in LPS-challenged human PBMC (ELISA); type: cell-based; conditions: hPBMC 1×10^6/mL, LPS 100 ng/mL for 20 hours, different concentrations
Procedure: as §1, §2

MCF-7 = experiment: Breast cancer cell growth (MTS viability); type: cell-based; conditions: for inhibition of breast cancer cell growth: MCF-7, six consecutive days, MTS every 48 hrs
Procedure: MCF-7 is a breast cancer cells and they were grown in 96 well plates at 1000 cells/well. The cells were pretreated with either compound 11 in example 11 and 8 in example 8 or DMSO for six consecutive days. Every 48 hrs they were stained with MTS dye and viability was checked accordingly.

DU-145 = experiment: Prostate cancer cell growth (MTS viability); type: cell-based; conditions: DU-145, six consecutive days, MTS every 48 hrs
Procedure: DU-145 is a prostate cancer cell and they were grown in 96 well plates at 1000 cells/well. The cells were pretreated with either compound 11 in example 11 and 8 in example 8 or DMSO for six consecutive days. Every 48 hrs they were stained with MTS dye and viability was checked accordingly.

Diet induced obese mice [4] = experiment: Body weight in diet induced obesity mouse model; type: in vivo, C57BL/6J male mouse; conditions: 60% Kcal high fat diet, 50 mg/kg body weight, compared to vehicle
Procedure: FIG. 7. Effect of Compound 20 in Example 20 on Diet Induced Obesity Mouse Models. C57BL/6J male mouse were fed with 60% Kcal high fat diet (D12492, Research Diet) ad libitum 15 days prior to the beginning of the treatment. Diet induced obese mice were treated with a dose of 50 mg/kg body weight compound 20 in example 20 and their bodyweight was monitored on every third day.

[5] = system: C57BL/6J male ob/ob diabetic mice; experiment: Blood glucose in ob/ob mice; type: in vivo; conditions: 50 mg/kg body weight oral in water, within six days of treatment
Procedure: FIG. 6. Lowering of Blood Glucose in ob/ob Mice by Compound 20 in Example 20. Seven weeks old C57BL/6J male ob/ob (obese, insulin resistant spontaneous model of type-II diabetes) diabetic mice were orally treated with compound 20 in example 20, at a dose of 50 mg/kg body weight dissolved in water and blood glucose (FIG. 6) was monitored by Accuchek glucometer.

[6] = system: db/db (spontaneous model) diabetic mice; experiment: Blood glucose and body weight in db/db obese diabetic mice; type: in vivo; conditions: 50 mg/kg body weight oral in water
Procedure: FIG. 5. […] Seven weeks old male db/db (spontaneous model) diabetic mice were orally treated with compound 20 in example 20 at a dose of 50 mg/kg body weight in water and blood glucose was monitored by Accuchek glucometer.

3T3-L1 fibroblasts = experiment: Adipogenesis in 3T3-L1 fibroblasts (Oil-red-O staining); type: cell-based
Procedure: FIG. 9. Compound 20 in Example 20 is Not Adipogenic.
All known PPARγ agonists induce differentiation in fibroblast cells. The adipogenic potential of these compounds are correlated with their affinity to this receptor. To check quickly the affinity of compound 20 in example 20 to this receptors, 3T3-L1 fibroblasts were treated with either DMSO control or rosiglitazone as positive control or these two compounds for several days at different concentrations. On day 13th, the differentiated adipocytes were stained with Oil-red-O (Sigma) and washed thoroughly to remove unbound stain and visualized under Olympus microscope.

Diet induced obese mice [7] = experiment: OGTT and serum insulin in diet induced obesity model; type: in vivo, C57BL/6J male mouse; conditions: day 60 of high fat feeding
Procedure: C57BL/6J male mouse were fed with 60% Kcal high fat diet (D12492, Research Diet) ad libitum 15 days prior to the beginning of the treatment. Diet induced obese mice were treated with a dose of 50 mg/kg body weight compound 20 in example 20 and their bodyweight was monitored on every third day. […] FIG. 8. Oral Glucose Tolerance Test (OGTT) in Diet Induced Obesity Model for Compound 20 in Example 20. […] To see the effect of compound 20 in example 20, on day 60 an OGTT study was carried to observe the improvement of glucose tolerance upon the treatment of compound 20 in example 20.

HCT-116 = experiment: Colon cancer cell growth (MTS viability); type: cell-based, human; conditions: 30 μM, 48 hrs
Procedure: FIG. 10. […] HCT-116 is a human colon cancer cell line and they were grown in 96 well plates with seeding concentration of […] cells/mL.

T1 sequence (P23219 24-599): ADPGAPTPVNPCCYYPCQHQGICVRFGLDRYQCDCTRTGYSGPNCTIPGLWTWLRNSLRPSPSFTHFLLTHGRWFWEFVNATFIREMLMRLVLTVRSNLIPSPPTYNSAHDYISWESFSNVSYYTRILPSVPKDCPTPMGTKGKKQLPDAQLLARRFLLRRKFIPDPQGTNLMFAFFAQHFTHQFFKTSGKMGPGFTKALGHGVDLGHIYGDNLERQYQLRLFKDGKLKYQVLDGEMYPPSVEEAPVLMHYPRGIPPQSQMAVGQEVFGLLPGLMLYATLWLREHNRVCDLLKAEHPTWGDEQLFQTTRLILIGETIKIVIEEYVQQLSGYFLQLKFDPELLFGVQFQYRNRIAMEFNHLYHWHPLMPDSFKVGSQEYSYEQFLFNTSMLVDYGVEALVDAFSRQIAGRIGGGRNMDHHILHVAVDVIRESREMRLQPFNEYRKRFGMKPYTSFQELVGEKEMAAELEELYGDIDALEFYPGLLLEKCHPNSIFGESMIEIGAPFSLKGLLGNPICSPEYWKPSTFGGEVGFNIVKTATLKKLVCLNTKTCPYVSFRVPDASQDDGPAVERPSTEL

**Q.** What does the source list for `COC(=O)C(N)Cc1ccc(Oc2ccc(C=C3C(=O)Nc4ccccc43)cc2)cc1.Cl` (stereo not drawn) [Compound 1, Methyl-2-amino-3-(4-{4-[(2-oxo-1,2-dihydro-3H-indol-3-ylidene)methyl]phenoxy}phenyl) propanoate hydrochloride]?
**A.** severity of EAE (clinical scores of paralysis) (SJL/J mice): complete prevention of EAE; change in cell viability [1]: No significant change in cell viability; inhibition of IL-1β production (IL-1β): inhibit the production of three major pro-inflammatory cytokines in a dose dependent manner; effect on arachidonic acid induced PGE-2 levels (COX-1 activity) (COX-1): no effect on arachidonic acid induced PGE-2 levels; inhibition of LPS induced PGE-2 production (COX-2; 10 μM compound, hPBMC): completely inhibited LPS induced PGE-2 production; selectivity on COX-2 over COX-1 activity (COX-2; LPS induced vs arachidonic acid induced PGE-2): Selectively Inhibits COX-2 Than COX-1 Enzyme; inhibition of LPS induced COX-2 activity (PGE-2 levels) (COX-2; hPBMC, LPS 100 ng/mL for 20 hours, different concentrations): dose dependently inhibited LPS induced COX-2 activity; inhibition of TNF-α production (TNF-α [2]): inhibit the production of three major pro-inflammatory cytokines in a dose dependent manner; reduction of TNF levels compared to control group (TNF-α [3]; 50 mg/kg bw oral): 25%; inhibition of IL-6 production (IL-6): inhibit the production of three major pro-inflammatory cytokines in a dose dependent manner

**Q.** For `COC(=O)C(N)Cc1ccc(Oc2ccc(C=C3C(=O)Nc4ccccc43)c(C(F)(F)F)c2)cc1.Cl` (stereo not drawn) [Compound 8, Methyl-2-amino-3-(4-{3-trifluoromethyl-4-[(2-oxo-1,2-dihydro-3H-indol-3-ylidene)methyl]phenoxy}phenyl) propanoate hydrochloride], which “dose dependence of breast cancer cell growth inhibition” value (MCF-7; MCF-7, doses from 1-50 μM) is on record?
**A.** worked equally well

**Q.** What about the “inhibition of breast cancer cell growth” value (MCF-7) of the same compound?
**A.** very strong in inhibiting the breast cancer cell growth

**Q.** What about the “inhibition of prostate cancer cell growth” value (DU-145) of the same compound?
**A.** selectively kills breast cancer cells

**Q.** Which results are given for `COC(=O)C(N)Cc1ccc(Oc2ccc(CC3C(=O)Nc4ccccc43)cc2C(F)(F)F)cc1.Cl` (stereo not drawn) [Compound 11, Methyl-2-amino-3-(4-{2-trifluoromethyl-4-[(2-oxo-2,3-dihydro-1H-indol-3-yl)methyl]phenoxy}phenyl) propanoate hydrochloride]?
**A.** inhibition of breast cancer cell growth (MCF-7): Inhibits Breast Cancer Cell Growth; inhibition of prostate cancer cell growth (DU-145): very similar in both breast and prostate cancer cells

**Q.** How did the body weight gain (Diet induced obese mice [4]) turn out when `CN(C)C(=O)[C@@H](N)Cc1ccc(Oc2ccc(/C=C3/C(=O)Nc4ccccc43)cc2)cc1.Cl` [Compound 20, 2-amino-N,N-dimethyl-3-{4-[4-(2-oxo-1,2-dihydroindol-3-ylidenemethyl)-phenoxy]-phenyl}-propionamide hydrochloric acid] was run?
**A.** less body weight gain compared to vehicle treated animals

**Q.** What about the blood glucose [5] of the same compound?
**A.** strong glucose lowering activity

**Q.** And the blood glucose [6]?
**A.** Reduces Blood Glucose

**Q.** And the body weight ([6]; compared to vehicle)?
**A.** lowering of body weight compared to vehicle

**Q.** And the “adipogenesis (differentiation of fibroblasts)” value (3T3-L1 fibroblasts; 3T3-L1, different concentrations, stained on day 13)?
**A.** remained unchanged

**Q.** And the “affinity to PPARγ receptor (indirect proof from adipogenesis)” value (3T3-L1 fibroblasts; inferred from 3T3-L1 adipogenesis)?
**A.** no affinity to PPARγ receptor

**Q.** What about the “decrease of serum insulin level” value (Diet induced obese mice [7]) of the same compound?
**A.** 70%

**Q.** `Cl.NC(=O)[C@@H](N)Cc1ccc(Oc2ccc(/C=C3/C(=O)Nc4ccccc43)cc2)cc1` [Compound 21, 2-amino-3-{4-[4-(2-oxo-1,2-dihydroindol-3-ylidenemethyl)-phenoxy]-phenyl}-propionamide hydrochloric acid] was tested. Which “inhibition of colon cancer cell growth” value (HCT-116) did it give?
**A.** completely inhibited colon cancer cell growth

**Q.** How did the “inhibition of TNF levels” value (TNF-α [3]; 5 mg/kg body weight oral) turn out when `C[C@@H]1C[C@H]2[C@@H]3CCC4=CC(=O)C=C[C@]4(C)[C@@]3(F)[C@@H](O)C[C@]2(C)[C@@]1(O)C(=O)CO` [dexamethasone, reference compound] was run?
**A.** 95%
